Measurements from US11078202B2, “β-lactamase inhibitor and use thereof” (priority 2018, dated 2021).
Where a name gives a salt, the structure may show the parent alone.

How the values were obtained:
Type in all cases: cell-based
[1] = tested on: Klebsiella pneumoniae XNWB 0005; assay: MIC assay of test compounds combined with ceftazidime (8 μg/mL); settings: ceftazidime 8 μg/mL fixed
Procedure: (§1) The bacterial strains used for the minimum inhibitory concentration (MIC) test were frozen in a −80° C. ULT freezer and thawed 2 days before use. A small amount of frozen bacterial strains were scraped using a sterile inoculating loop, streaked onto a TSA solid culture dish for inoculation, and then cultured for 20-24 h at 35±2° C. in a normal atmospheric environment. 5-10 colonies with similar morphology were picked from the culture dish using a sterile inoculating loop and then re-streaked onto a suitable solid culture dish. Then the dish was placed into a normal incubator for culture for 20-24 h at 35±2° C. 5-10 single bacterial colonies were picked from the solid culture dish, resuspended in 500 μL of 0.9% NaCl, and adjusted to an OD600 of 0.1-0.15 with a spectrophotometer. The bacteria were then diluted 300-fold with 1.1×CAMHB. […] Dilution of test compounds: […] 2 μL of each compound in the dilution master plate of the test compounds was transferred to the corresponding well of the assay plates. In the mean time, 2 μL of 100% DMSO was transferred to the compound-free wells (GC and SC wells). (1) 8 μL of imipenem in the additive plate of imipenem was transferred to the corresponding wells of the assay plates; (2) 8 μL of ceftazidime in the additive plate of ceftazidime was transferred to the corresponding wells of the assay plates; (3) 8 μL of ampicillin in the additive plate of ampicillin was transferred to the corresponding wells of the assay plates. 90 μL of corresponding bacterial inocula were added to wells (except for SC wells) of the assay plates. After addition, the 6 assay plates were covered by sterile covers. The mixtures in the assay plates were centrifuged by a centrifuge at 1000 rpm for 30 s, and mixed uniformly by oscillating with a microplate oscillator at 800 rpm for 1 min, and then cultured in a common incubator for 16-20 h at 35±2° C. The minimum inhibitory concentration of each compound was recorded by reference to guidelines from the Clinical and Laboratory Standards Institute. […] The effect of the test compounds in combination with imipenem, ceftazidime, and ampicillin was also tested. […] The bacterial inocula in the assay plates were resuscitated from TSA and diluted in CAMHB, while growth controls (GC wells) and sterile controls (SC wells) were set up in the assay plates. The minimum inhibitory concentration of each compound combination against different bacteria was observed and recorded after the assay plates were incubated in a common incubator at 35±2° C. for 16-20 h, and the results are shown in Tables 1-3.

[2] = tested on: Klebsiella pneumoniae XNWB 0006; assay: as above; settings: ceftazidime 8 μg/mL fixed
Procedure: as §1

[3] = tested on: Klebsiella pneumoniae XNWB 0002; assay: as above; settings: ceftazidime 8 μg/mL fixed
Procedure: as §1

[4] = tested on: Pseudomonas aeruginosa XNWB 0008; assay: as above; settings: ceftazidime 8 μg/mL fixed
Procedure: as §1

[5] = tested on: Klebsiella pneumoniae XNWB 0004; assay: as above; settings: ceftazidime 8 μg/mL fixed
Procedure: as §1

[6] = tested on: Klebsiella pneumoniae XNWB 0003; assay: as above; settings: ceftazidime 8 μg/mL fixed
Procedure: as §1

[7] = tested on: Klebsiella pneumoniae XNWB 0001; assay: as above; settings: ceftazidime 8 μg/mL fixed
Procedure: as §1

[8] = tested on: Acinetobacter baumannii XNWB 0007; assay: as above; settings: ceftazidime 8 μg/mL fixed
Procedure: as §1

[9] = tested on: Klebsiella pneumoniae XNWB 0005; assay: MIC assay of test compounds combined with imipenem (4 μg/mL); settings: imipenem 4 μg/mL fixed
Procedure: as §1

[10] = tested on: Klebsiella pneumoniae XNWB 0006; assay: as above; settings: imipenem 4 μg/mL fixed
Procedure: as §1

[11] = tested on: Klebsiella pneumoniae XNWB 0002; assay: as above; settings: imipenem 4 μg/mL fixed
Procedure: as §1

[12] = tested on: Pseudomonas aeruginosa XNWB 0008; assay: as above; settings: imipenem 4 μg/mL fixed
Procedure: as §1

[13] = tested on: Klebsiella pneumoniae XNWB 0004; assay: as above; settings: imipenem 4 μg/mL fixed
Procedure: as §1

[14] = tested on: Klebsiella pneumoniae XNWB 0003; assay: as above; settings: imipenem 4 μg/mL fixed
Procedure: as §1

[15] = tested on: Klebsiella pneumoniae XNWB 0001; assay: as above; settings: imipenem 4 μg/mL fixed
Procedure: as §1

[16] = tested on: Acinetobacter baumannii XNWB 0007; assay: as above; settings: imipenem 4 μg/mL fixed
Procedure: as §1

| SMILES | The minimum concentration of test compounds combined with ceftazidime (8 μg/mL) for bacteriostasis [1] | The minimum concentration of test compounds combined with ceftazidime (8 μg/mL) for bacteriostasis [2] | The minimum concentration of test compounds combined with ceftazidime (8 μg/mL) for bacteriostasis [3] | The minimum concentration of test compounds combined with ceftazidime (8 μg/mL) for bacteriostasis [4] | The minimum concentration of test compounds combined with ceftazidime (8 μg/mL) for bacteriostasis [5] | The minimum concentration of test compounds combined with ceftazidime (8 μg/mL) for bacteriostasis [6] | The minimum concentration of test compounds combined with ceftazidime (8 μg/mL) for bacteriostasis [7] | The minimum concentration of test compounds combined with ceftazidime (8 μg/mL) for bacteriostasis [8] | The minimum concentration of test compounds combined with imipenem (4 μg/mL) for bacteriostasis [9] | The minimum concentration of test compounds combined with imipenem (4 μg/mL) for bacteriostasis [10] | The minimum concentration of test compounds combined with imipenem (4 μg/mL) for bacteriostasis [11] | The minimum concentration of test compounds combined with imipenem (4 μg/mL) for bacteriostasis [12] | The minimum concentration of test compounds combined with imipenem (4 μg/mL) for bacteriostasis [13] | The minimum concentration of test compounds combined with imipenem (4 μg/mL) for bacteriostasis [14] | The minimum concentration of test compounds combined with imipenem (4 μg/mL) for bacteriostasis [15] | The minimum concentration of test compounds combined with imipenem (4 μg/mL) for bacteriostasis [16] |
| --- | --- | --- | --- | --- | --- | --- | --- | --- | --- | --- | --- | --- | --- | --- | --- | --- |
| NC1CC(c2cc([C@@H]3CC4(CC4)[C@@H]4CN3C(=O)N4OS(=O)(=O)O)no2)C1 (single isomer, unassigned) [Example 52] | B (B: 8-16 μg/mL) | A (A: <8 μg/mL) | A (A: <8 μg/mL) | C (C: 16-128 μg/mL) | B (B: 8-16 μg/mL) | B (B: 8-16 μg/mL) | A (A: <8 μg/mL) | C (C: 16-128 μg/mL) | A (A: <8 μg/mL) | A (A: <8 μg/mL) | A (A: <8 μg/mL) | A (A: <8 μg/mL) | A (A: <8 μg/mL) | A (A: <8 μg/mL) | A (A: <8 μg/mL) | C (C: 16-128 μg/mL) |
| N[C@@H]1CCC(c2nnc([C@@H]3CC4(CC4)[C@@H]4CN3C(=O)N4OS(=O)(=O)O)o2)C1 (stereo in doubt) [Example 18, (1R,4S)-4-(5-((1R,3R)-3-aminocyclopentyl)-1,3,4-oxadiazol-2-yl)-6-oxo-5,7-diazaspiro [bicyclo[3.2.1]octane-2,1′-cyclopropan]-7-yl sulfate] | A (A: <8 μg/mL) | A (A: <8 μg/mL) | A (A: <8 μg/mL) | B (B: 8-16 μg/mL) | B (B: 8-16 μg/mL) | A (A: <8 μg/mL) | A (A: <8 μg/mL) | C (C: 16-128 μg/mL) | A (A: <8 μg/mL) | A (A: <8 μg/mL) | A (A: <8 μg/mL) | A (A: <8 μg/mL) | A (A: <8 μg/mL) | A (A: <8 μg/mL) | A (A: <8 μg/mL) | B (B: 8-16 μg/mL) |
| NC(=O)[C@@H]1CC[C@@H]2CN1C(=O)N2OS(=O)(=O)O [Avibactam, reference compound] | A (A: <8 μg/mL) | A (A: <8 μg/mL) | A (A: <8 μg/mL) | A (A: <8 μg/mL) | A (A: <8 μg/mL) | A (A: <8 μg/mL) | A (A: <8 μg/mL) | C (C: 16-128 μg/mL) | A (A: <8 μg/mL) | A (A: <8 μg/mL) | A (A: <8 μg/mL) | A (A: <8 μg/mL) | A (A: <8 μg/mL) | A (A: <8 μg/mL) | A (A: <8 μg/mL) | C (C: 16-128 μg/mL) |
| O=C1N2C[C@H](N1OS(=O)(=O)O)C1(CC1)C[C@H]2c1nnco1 [Example 1, (1R,4S)-4-(1,3,4-oxadiazol-2-yl)-6-oxo-5,7-diazaspiro[bicyclo[3.2.1]octane-2,1′-cyclopropan]-7-yl sulfate] | A (A: <8 μg/mL) | A (A: <8 μg/mL) | A (A: <8 μg/mL) | C (C: 16-128 μg/mL) | B (B: 8-16 μg/mL) | A (A: <8 μg/mL) | A (A: <8 μg/mL) | C (C: 16-128 μg/mL) | A (A: <8 μg/mL) | A (A: <8 μg/mL) | A (A: <8 μg/mL) | C (C: 16-128 μg/mL) | A (A: <8 μg/mL) | A (A: <8 μg/mL) | A (A: <8 μg/mL) | C (C: 16-128 μg/mL) |
| NC[C@@H](O)c1nnc([C@@H]2CC3(CC3)[C@@H]3CN2C(=O)N3OS(=O)(=O)O)o1 [Example 61] | – | – | – | – | – | – | – | – | A (A: <8 μg/mL) | A (A: <8 μg/mL) | A (A: <8 μg/mL) | B (B: 8-16 μg/mL) | A (A: <8 μg/mL) | A (A: <8 μg/mL) | A (A: <8 μg/mL) | B (B: 8-16 μg/mL) |
| NC[C@H](O)c1nnc([C@@H]2CC3(CC3)[C@@H]3CN2C(=O)N3OS(=O)(=O)O)o1 [Example 62, (1R,4S)-4-(5-((S)-2-amino-1-hydroxyethyl)-1,3,4-oxadiazol-2-yl)-6-oxo-5,7-diazaspiro[bicyclo[3.2.1]octane-2,1′-cyclopropane]-7-yl hydrogen sulfate] | – | – | – | – | – | – | – | – | A (A: <8 μg/mL) | A (A: <8 μg/mL) | A (A: <8 μg/mL) | B (B: 8-16 μg/mL) | A (A: <8 μg/mL) | A (A: <8 μg/mL) | A (A: <8 μg/mL) | A (A: <8 μg/mL) |
